In ChEMBL document CHEMBL1143042, “Isolation and syntheses of polymethoxyflavones and hydroxylated polymethoxyflavones as inhibitors of HL-60 cell lines” (Bioorg Med Chem, 2007):
Calls of active or inactive are those of the source. The calls are words filed in the database; no cut-off is given here.

How the values were obtained:
Format in all cases: functional, cell-based
[1] = tested on: HL-60; assay: Antiproliferative activity against HL60 after 24 hrs; conditions: Homo sapiens, HL-60, 24 h
[2] = tested on: HL-60; assay: Apoptotic activity in HL60 cells after 24 hrs; conditions: Homo sapiens, HL-60, 24 h
[3] = tested on: PMN; assay: Cytotoxicity against human PMN cells at 100 uM

Row | Structure (SMILES) | IC50 [1] [µM] | AC50 [2] [µM] | Activity [3]
1 | COc1ccc(-c2oc3c(OC)c(OC)c(OC)c(OC)c3c(=O)c2OC)cc1OC [3,5,6,7,8,3',4'-HEPTAMETHOXYFLAVONE] | 13.3 | 33.9 | inactive
2 | COc1cc(-c2cc(=O)c3c(OC)c(OC)c(OC)c(OC)c3o2)ccc1O | 47.4 | 87.1 | inactive
3 | COc1cc(-c2cc(=O)c3c(O)c(OC)c(OC)c(OC)c3o2)cc(OC)c1OC [GARDENIN] | > 100 | > 100 | inactive
4 | COc1ccc(-c2cc(=O)c3c(OC)c(OC)c(OC)c(OC)c3o2)cc1O | 52.7 | 94.6 | inactive
5 | COc1ccc(-c2oc3c(OC)c(OC)c(OC)c(OC)c3c(=O)c2O)cc1OC [NATSUDAIDAI] | > 100 | 56.5 | inactive
6 | COc1ccc(-c2oc3cc(OC)c(OC)c(O)c3c(=O)c2OC)cc1OC [ARTEMETIN] | 6.44 | 7.26 | inactive
7 | COc1c(OC)c(OC)c2c(=O)cc(-c3ccc(O)c(O)c3)oc2c1OC | 71.2 | > 100 | inactive
8 | COc1ccc(-c2cc(=O)c3c(O)c(OC)c(OC)c(OC)c3o2)cc1OC [5-DEMETHYLNOBILETIN] | 2.07 | 5.87 | inactive
9 | COc1ccc(-c2cc(=O)c3c(OC)c(OC)c(OC)c(OC)c3o2)cc1 [TANGERETIN] | > 100 | > 100 | inactive
10 | COc1ccc(-c2oc3cc(OC)c(OC)c(OC)c3c(=O)c2OC)cc1OC [HEXAMETHOXYFLAVONE] | 20.6 | 92.1 | inactive
11 | COc1ccc(-c2cc(=O)c3c(OC)c(OC)c(OC)c(OC)c3o2)cc1OC [NOBILETIN] | 41.5 | > 100 | inactive
12 | COc1ccc(-c2cc(=O)c3c(O)c(OC)c(OC)cc3o2)cc1OC | > 100 | > 100 | inactive
13 | COc1ccc(-c2oc3c(OC)c(OC)c(OC)c(O)c3c(=O)c2OC)cc1OC | 4.16 | 5.9 | inactive
14 | COc1ccc(-c2cc(=O)c3c(OC)c(OC)c(OC)cc3o2)cc1OC [SINENSETIN] | > 100 | > 100 | inactive
15 | COc1ccc(-c2cc(=O)c3c(O)c(OC)c(OC)c(OC)c3o2)cc1 [GARDENIN B] | > 100 | > 100 | inactive
